From patent publication US9227923B2, “Pesticidal carboxamides” (Bayer Intellectual Property GmbH, priority 2009, dated 2016)

What was measured:
Type in all cases: in vivo
[1] = tested on: Tobacco Cutworm (Spodoptera litura) Larvae; assay: Test against tobacco cutworm (Spodoptera litura) larvae, leaf dip; conditions: active compound concentration of 100 ppm; third instar larvae; after 7 days
In short: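 Sweet potato leaves were dipped in the test solution (DMF solvent, polyoxyethylene alkyl phenyl ether emulsifier), air-dried and offered to ten third-instar larvae per dish at 25 °C, with fresh leaves added on days 2 and 4. Mortality was counted at day 7 and expressed as % insecticidal activity (100% = all dead).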

[2] = tested on: Two-Spotted Spider Mite (Tetranychus Urticae); assay: Test against two-spotted spider mite (Tetranychus urticae), spray; conditions: active compound concentration of 100 ppm; adult mites; after 7 days
From the text: Solvent: 3 parts by weight of dimethylformamide
Emulsifier: 1 part by weight of polyoxyethylene alkyl phenyl ether

[3] = tested on: Cucurbit Leaf Beetle (Aulacophora Femoralis); assay: Test against cucurbit leaf beetle (Aulacophora femoralis), leaf dip; conditions: active compound concentration of 100 ppm; second instar larvae; after 7 days
In short: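 Cucumber leaves dipped in compound solution (DMF solvent, polyoxyethylene alkyl phenyl ether emulsifier), air-dried, and placed with five second-instar larvae in cups on sterilized soil at 25° C. Dead larvae counted after 7 days; activity expressed as percent larvae killed.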

CCc1cc(C(F)(C(F)(F)F)C(F)(F)F)cc(C)c1NC(=O)c1ccc(CNC(=O)c2cccnc2Cl)cc1 [Compound 5-41]
100%: insecticidal activity [1] | acaricidal activity [2] | insecticidal activity [3]

Cc1cc(C(F)(C(F)(F)F)C(F)(F)F)cc(OC(F)F)c1NC(=O)c1ccc(CNC(=O)CC(F)(F)F)c(Cl)c1 [Compound 5-296]
100%: insecticidal activity [1] | acaricidal activity [2] | insecticidal activity [3]

CCc1cc(C(F)(C(F)(F)F)C(F)(F)F)cc(C)c1NC(=O)c1cc(F)c(CNC(=O)CC2CC2)cc1F [Compound 5-61]
100%: insecticidal activity [1] | acaricidal activity [2] | insecticidal activity [3]

Cc1cc(C(F)(C(F)(F)F)C(F)(F)C(F)(F)F)cc(C)c1NC(=O)c1ccc(CNC(=O)CC(F)(F)F)c(F)c1F (stereo not drawn) [Compound 5-213]
100%: insecticidal activity [1] | acaricidal activity [2] | insecticidal activity [3]

CCc1cc(C(F)(C(F)(F)F)C(F)(F)F)cc(C)c1NC(=O)c1ccc(CNC(=O)c2cccnc2F)c(Br)c1 [Compound 5-93]
100%: insecticidal activity [1] | acaricidal activity [2] | insecticidal activity [3]

CCC(=O)NC1CCc2cc(C(=O)Nc3c(C)cc(C(F)(C(F)(F)F)C(F)(F)F)cc3CC)ccc21 (stereo not drawn) [Compound 10-3]
100%: insecticidal activity [1] | acaricidal activity [2] | insecticidal activity [3]

CCc1cc(C(F)(C(F)(F)F)C(F)(F)F)cc(C)c1NC(=O)c1ccc(CNC(=O)CC(F)(F)F)c(Cl)c1 [Compound 5-81]
100%: insecticidal activity [1] | acaricidal activity [2] | insecticidal activity [3]

CCC(=O)NCc1ccc(C(=O)Nc2c(C)cc(C(F)(C(F)(F)F)C(F)(F)Br)cc2CC)cc1Cl (stereo not drawn) [Compound 5-220]
100%: insecticidal activity [1] | acaricidal activity [2] | insecticidal activity [3]

CC(=O)NCc1ccc(C(=O)Nc2c(C)cc(C(F)(C(F)(F)F)C(F)(F)F)cc2OC(F)F)cc1Cl [Compound 5-294]
100%: insecticidal activity [1] | acaricidal activity [2] | insecticidal activity [3]

CCc1cc(C(F)(C(F)(F)F)C(F)(F)F)cc(C)c1NC(=O)c1ccc(CNC(=O)C2CC2)cc1 [Compound 5-30]
100%: insecticidal activity [1] | acaricidal activity [2] | insecticidal activity [3]

CCC(=O)NCc1ccc(C(=O)Nc2c(C)cc(C(F)(C(F)(F)F)C(F)(F)C(F)(F)F)cc2CC)cc1Cl (stereo not drawn) [Compound 5-151]
100%: insecticidal activity [1] | acaricidal activity [2] | insecticidal activity [3]

CCc1cc(C(F)(C(F)(F)F)C(F)(F)C(F)(F)F)cc(C)c1NC(=O)c1ccc(CNC(=O)c2cccnc2F)c(Cl)c1 (stereo not drawn) [Compound 5-155]
100%: insecticidal activity [1] | acaricidal activity [2] | insecticidal activity [3]

CCC(=O)NCc1ccc(C(=O)Nc2c(C)cc(C(F)(C(F)(F)F)C(F)(F)F)cc2CC)cc1Br [Compound 5-86]
100%: insecticidal activity [1] | acaricidal activity [2] | insecticidal activity [3]

CCc1cc(C(F)(C(F)(F)F)C(F)(F)Br)cc(C)c1NC(=O)c1ccc(CNC(=O)CC(F)(F)F)c(Cl)c1 (stereo not drawn) [Compound 5-221]
100%: insecticidal activity [1] | acaricidal activity [2] | insecticidal activity [3]

CCC(=O)NC(C)c1ccc(C(=O)Nc2c(C)cc(C(F)(C(F)(F)F)C(F)(F)F)cc2CC)cc1 (stereo not drawn) [Compound 9-3]
100%: insecticidal activity [1] | acaricidal activity [2] | insecticidal activity [3]
